What is called IC50 is the concentration at which inhibition is half-maximal.

This is an account of results in US12152008B2, “Cyclopentaimidazolones for the treatment of cancer” (The Broad Institute, Inc., priority 2018, dated 2024).

Holding throughout (assay type): cell-based
Test [1] deals with patient derived organoids and cell lines. Description: Organoid and cell line screen, panel (FIG. 1). Conditions: organoids PF0039, PF0071, PF0172-T2, PF0202, cell lines PaTu 8902, BxPC-3, NCIH2405, OV-90. As to the method:
(§1) Compounds were tested on patient-derived tumor organoids. Such organoids retain the three-dimensional structure of the tissue providing conditions that are more representative of in vivo behavior. Such organoids are described by Boj, Sylvia, et al., Cell 160: 324 (2015), hereby incorporated by reference in its entirety. Briefly, cultures of primary and metastatic pancreatic tumor specimens as patient-derived xenografts, 3D tumor organoids, and patient-derived cell lines were produced including a cohort of 21 patient-derived xenografts and 67 organoid cultures from primary and metastatic pancreatic tumor specimens. The functional dependencies of compounds in these patient-derived samples were measured on a 3D organoid and its matched 2D patient-derived cell lines. Conditions were optimized for performing high-throughput compound screening of 3D organoids, including suspension culture with Matrigel in 384-well plates, viability assessment with CellTiter-Glo 3D. […] FIG. 2A illustrates the dose dependent responses of an enantioenriched sample of Compound E1 synthesized using an enantio-purified sample of E1 in the (R,R)-configuration (70% ee) (e.g., E1(R,R)), an enantioenriched sample of E1 (“E1(S,S)”), and racemic mixtures of E1 on NCIH2405 cells (“E1”).

Another test concerns OV-90. The experiment in a line: Cell line viability screen, IC50 (CellTiter-Glo 3D). As to conditions: OV90 cell line. As to the method:
as §1
(§2) Table 1 gives the IC50 values (μM) of compounds having the structure of formula (I) (including E1(S,S) and E1(Rac) in patient-derived organoids and several cell lines. Compounds E1-E12 were synthesized as described above as racemates (i.e., E1(Rac)-R12(Rac), and E1(S,S) and E1(R,R) were synthesized using the (S,S)-5 reagent or (R,R)-5 reagent, respectively, as described above.

The test system of a further test is NCIH2405 cells. The test is described as above. As to conditions: read-out: IC50 NCIH 2405. The method, then: as §1, §2
Another test has as its system BxPC-3. The description is as above. As to conditions: BxPC3 cell line. The method, then:
as §1, §2

For another test, the system named is PaTu 8902. The description is as above. Conditions: PaTu 8902 cell line. As to the method: as §1, §2
For test [2], the system named is PF0039 patient-derived organoid. The experiment in a line: Patient-derived organoid viability screen, IC50. As to conditions: read-out: IC50 PF 0039. The method, then: as §1, §2
In test [3] the test system is PF0172_T2 patient-derived organoid. The experiment in a line: Patient-derived organoid viability screen, IC50. As to conditions: read-out: IC50 PF 0172_T2. As to the method:
as §1, §2

In test [4] the test system is PF0202 patient-derived organoid. The experiment in a line: Patient-derived organoid viability screen, IC50. Conditions: read-out: IC50 PF 0202. The method, then:
as §1, §2

The subject of another test is PF0071 organoids. The experiment in a line: PF0071 sensitivity screen (organoid dose response). The arrangement: key: Active: the analog typically with the lower IC50 value was identified as “active”; Inactive: the analog with the higher IC50 value was identified as “inactive.”. Conditions: optically pure enantiomers. The method, then:
as §1
E1(Rac), E5(Rac), and E8(Rac) were synthesized as racemic mixtures (i.e., without a chiral catalyst) and separated into six optically pure compounds.
With the absolute stereochemistry identified, the correlation between specific isomer and activity was determined for PF0071 organoids. Table 2 compares the activities of each set of racemates that were measured as compared to the designations illustrated in FIG. 2B.
The response to dose of several compounds (including a linkered analog) on PF0071 organoids were run. Enantiomers of E1, E5, and E8 were tested and compared to results with a linked compound synthesized as a racemic mixture as described above (identified in FIG. 3 as “Linked E1(Rac)”) having the structure: […]

The structures appear in SMILES notation.

With `COC1C=CC2C1N(CC(C)C)C(=O)N2c1ccccc1` (racemic) [Compound E1], the “Effect on viability across panel” value in test [1] is “dose-dependent effect on only a subset of organoids”. Also, the IC50 in the test with OV-90 was above 100 µM; with NCIH2405 cells, 7.41 µM; in the test on BxPC-3, above 100 µM; in the test with PaTu 8902, above 100 µM; in [2], 22.3 µM; in [3], 3.41 µM. The IC50 in [4] came to 55.4 µM.
On to `CC(C)CN1C(=O)N(c2ccccc2)C2C=CC(O)C21` (racemic) [E2(Rac)], for which the IC50 with OV-90 is above 100 µM; in the test on NCIH2405 cells, above 100 µM; in the test with BxPC-3 it was above 100 µM; in the test with PaTu 8902 it was above 100 µM; in test [2] it was 31.7 µM; in [3] it was 4.05 µM. Also, the IC50 in test [4] is above 100 µM.
Turning to `COC1C=CC2C1N(C)C(=O)N2c1ccccc1` (racemic) [E3(Rac)], the IC50 with OV-90 is above 100 µM; with NCIH2405 cells it was above 100 µM; in the test with BxPC-3, above 100 µM; in the test on PaTu 8902, above 100 µM; in test [2], above 100 µM; in [3] it was 85.8 µM. The IC50 in test [4] is above 100 µM.
As for `CCOC1C=CC2C1N(CC(C)C)C(=O)N2c1ccccc1` (racemic) [E4(Rac)], the IC50 in the test with OV-90 is 76.9 µM; in the test on NCIH2405 cells, 14.3 µM; in the test on BxPC-3 it was 96.4 µM; in the test on PaTu 8902, above 100 µM; in [2] it was 25.8 µM; in [3], 3.4 µM. In addition, the IC50 in test [4] was determined as 40.2 µM.
Turning to `COC1CCC2C1N(CC(C)C)C(=O)N2c1ccccc1` (racemic) [E5(Rac)], the IC50 is 83.3 µM with OV-90; 4.11 µM in the test with NCIH2405 cells; 64.4 µM in the test on BxPC-3; above 100 µM in the test on PaTu 8902; 7.26 µM in [2]; 1.16 µM in test [3]. In test [4], the IC50 is 16.5 µM.
Consider `COC1C=CC2C1N(CC(C)C)C(=O)N2Cc1ccccc1` (racemic) [E6(Rac)], for which the IC50 with OV-90 is 96.4 µM; with NCIH2405 cells, above 100 µM; in the test with BxPC-3 it was above 100 µM; with PaTu 8902, above 100 µM; in [2], 40.7 µM; in test [3], 17.4 µM. For the same compound, the IC50 in test [4] is 65.3 µM.
For `COC1C=CC2C1N(CC(C)C)C(=O)N2c1ccc(C#N)cc1` (racemic) [E7(Rac)], the IC50 in the test on OV-90 was above 100 µM; in the test on NCIH2405 cells, above 100 µM; in the test on BxPC-3 it was above 100 µM; in the test with PaTu 8902, 75.1 µM; in [2], above 100 µM; in [3], above 100 µM. Also, in test [4], the IC50 is at least 100 µM.
Consider `COC1C=CC2C1N(CC(C)C)C(=O)N2c1ccc(Cl)cc1` (racemic) [E8(Rac)], for which the IC50 with OV-90 came out at 30.7 µM; with NCIH2405 cells it was 2.58 µM; in the test with BxPC-3 it was 17.3 µM; with PaTu 8902, 33.9 µM; in [2], 8.19 µM; in test [3] it was 2.15 µM. In addition, the IC50 in test [4] stood at 27.9 µM.
In the case of `COc1ccc(N2C(=O)N(CC(C)C)C3C(OC)C=CC32)cc1` (racemic) [E9(Rac)], the IC50 in the test with OV-90 turned out to be 65.5 µM; with NCIH2405 cells it was 58.8 µM; with BxPC-3, 56.4 µM; in the test on PaTu 8902, 76.8 µM; in [2], 43.5 µM; in test [3], 88.6 µM. Moreover, in [4], the IC50 came out at 47.1 µM.
As to `COC1C=CC2C1N(CC(C)C)C(=O)N2c1cccc(F)c1` (racemic) [E10(Rac)], the IC50 with OV-90 was 83.9 µM; in the test with NCIH2405 cells it was 3.44 µM; with BxPC-3 it was 66.6 µM; with PaTu 8902, above 100 µM; in [2], 8.14 µM; in [3] it was 2.22 µM. In addition, the IC50 in test [4] stood at 36.9 µM.
As to `COC1C=CC2C1N(CC(C)C)C(=O)N2c1ccc(F)cc1` (racemic) [E11(Rac)], the IC50 in the test on OV-90 was 93.6 µM; with NCIH2405 cells it was 10.2 µM; in the test on BxPC-3 it was above 100 µM; in the test on PaTu 8902, above 100 µM; in test [2] it was 28.2 µM; in test [3], 4.08 µM. For the same compound, the IC50 in test [4] came out at 49.5 µM.
For the compound `COC1C=CC2C1N(CC(C)C)C(=O)N2c1ccc(C)cc1` (racemic) [E12(Rac)], the IC50 in the test on OV-90 is 85.9 µM; in the test with NCIH2405 cells it was 2.04 µM; with BxPC-3 it was above 100 µM; in the test on PaTu 8902, above 100 µM; in test [2], 7.42 µM; in test [3], 1.21 µM. Moreover, in test [4], the IC50 was 51.4 µM.
With `CO[C@@H]1CC[C@@H]2[C@H]1N(CC(C)C)C(=O)N2c1ccccc1` (stereo in doubt), the “Activity (active or inactive)” value with PF0071 organoids was “Active”.
As to `CO[C@H]1CC[C@H]2[C@@H]1N(CC(C)C)C(=O)N2c1ccccc1` (stereo in doubt), in the test with PF0071 organoids, the “Activity (active or inactive)” value is given as “Inactive”.
Regarding `CO[C@@H]1C=C[C@@H]2[C@H]1N(CC(C)C)C(=O)N2c1ccccc1` (stereo in doubt), the “Activity (active or inactive)” value with PF0071 organoids is “Active”.
Regarding `CO[C@H]1C=C[C@H]2[C@@H]1N(CC(C)C)C(=O)N2c1ccccc1` (stereo in doubt), in the test on PF0071 organoids, the “Activity (active or inactive)” value is recorded as “Inactive”.
Turning to `CO[C@@H]1C=C[C@@H]2[C@H]1N(CC(C)C)C(=O)N2c1ccc(Cl)cc1` (stereo in doubt), the “Activity (active or inactive)” value with PF0071 organoids is listed as “Active”.
For the compound `CO[C@H]1C=C[C@H]2[C@@H]1N(CC(C)C)C(=O)N2c1ccc(Cl)cc1` (stereo in doubt), the “Activity (active or inactive)” value with PF0071 organoids is reported as “Inactive”.
